Data on one compound can be found in article PMC5618418, “Pharmacokinetics of Jaspine B and Enhancement of Intestinal Absorption of Jaspine B in the Presence of Bile Acid in Rats” (Marine Drugs, 2017).

Structures are written as SMILES. Where two headings read alike, the source gives them in different places.

The test system of one data set is MDA-MB-435. On the set-up: method as in doi:10.5352/JLS.2016.26.12.1392. Particulars: MDA-MB-435 melanoma; cited from earlier work.
In a further data set the test system is MCF-7. Details: method as in doi:10.5352/JLS.2016.26.12.1392. Particulars: MCF-7 breast cancer cells; cited from earlier work.
Data set [1] can be described thus: Pharmacokinetics after intravenous injection (plasma, bile, urine). In kind it is in vivo, rat. Particulars: for half-life: iv, 10 mg/kg. The protocol: Male SD rats (aged 8–9 weeks, weighing 250–300 g) were obtained from Samtako Bio Korea, Inc. (Osan, Korea). The rats were acclimatized for 1 week in a temperature-controlled room (23 ± 2 °C) with a 12-h illumination cycle. Food and water were given ad libitum. All animal procedures were approved by the Animal Care and Use Committee of the Kyungpook National University (No. 2015-0064). The rats were fasted for at least 12 h before the oral administration of drugs.
The femoral artery, femoral vein, and bile duct were cannulated with polyethylene tubes (PE-50 and PE-10; Jungdo, Seoul, Korea) under light anesthesia with isoflurane.
For intravenous (IV) dosing, Jaspine B was dissolved in a vehicle containing DMSO: PEG400: saline (2:4:4, v/v/v) and was IV-injected via the femoral vein at 10 mg/kg (vehicle volume, 1 mL/kg). Blood samples were collected from the femoral artery at 0, 0.083, 0.167, 0.25, 0.5, 1, 2, 4, 6, 8, and 12 h following the IV administration of Jaspine B. Bile and urine samples were collected every 2 h for a total of 12 h. After centrifugation of blood samples at 13,200 rpm for 10 min, aliquots of 50 μL of plasma, bile, and urine were stored at −80 °C until the analysis of Jaspine B.
Aliquots (50 μL) of plasma, bile, feces homogenates, and urine samples were added to 250 μL of acetonitrile containing 0.5 ng/mL of berberine (an internal standard). After vortexing for 10 min and centrifugation at 13,200 rpm for 5 min, an aliquot (2 μL) of the supernatant was injected directly into the LC-MS/MS system. For the analysis of plasma concentration, the standard curve range was 25–5000 ng/mL and the concentrations of quality control (QC) samples were 75, 500, and 3000 ng/mL, as described previously. Concentrations of Jaspine B in urine, bile, and feces homogenates were 5–300 ng/mL, 20–5000 ng/mL, and 20–5000 ng/mL, respectively. The concentrations of QC samples were 15, 100, and 300 ng/mL for urine samples and 75, 500, and 3000 ng/mL for bile and feces homogenates.
Pharmacokinetic parameters were determined using a non-compartmental analysis (WinNonlin® 2.0; Pharsight, Mountain View, CA, USA). Maximum plasma concentration (Cmax) and time to reach Cmax (Tmax) values were obtained from plasma concentration-time curves. The area under the plasma concentration–time curve from zero to infinity (AUC) was calculated using the trapezoidal-extrapolation method. For extrapolation, the area from the last data point to infinity was estimated by dividing the […].
Total systemic clearance (CLtotal) was calculated by dividing IV dose by plasma AUC and the apparent volume of distribution at steady-state (Vss) was calculated by multiplying mean residence time (MRT) by CLtotal.

For data set [2], the system named is metastatic melanoma cell growth in the lungs. On the set-up: method as in PMID 22451302. Particulars: mice, intravenous (equivalent to 6.7 mg/kg) on 4th, 8th, 12th day, read on day 14; cited from earlier work.
The test system of the next data set is HepG2. On the set-up: method as in doi:10.5352/JLS.2016.26.12.1392. Particulars: HepG2 hepatoma; cited from earlier work.
The next data set is described as follows: in vitro. Format: in vitro ADME, rat. The protocol:
For the measurement of the effect of TC on the tight junction of biological membranes, the permeability of 50 μM Lucifer yellow, a marker of paracellular permeation, was measured in the presence of TC (0, 0.1, 1, 10, 100 mM). Prior to the experiment, ileal segments from SD rats (about 20 cm) were placed in the chambers and were submerged in fresh, prewarmed (37 °C) HBSS for 15 min for acclimatization. The chambers were continuously bubbled with carbogen gas (5% CO2/ 95% O2) during the experiment. The experiments began by replacing the HBSS with HBSS containing 50 μM Lucifer yellow and various concentrations of TC on the apical side (A) and adding fresh HBSS to the basal side (B). Aliquots (400 μL) of media were withdrawn from the receiver compartment (B) after 0, 20, 40, 60, and 80 min, and the volume of liquid in the receiver compartment was replenished with fresh, prewarmed HBSS after each sampling. Aliquots (200 μL) of all samples were used for the determination of Lucifer yellow concentration. The fluorescence of Lucifer yellow in the samples was measured using a fluorescence spectrophotometer (Infinite 200 PRO, Tecan, Switzerland) with excitation at 425 nm and emission at 535 nm.
A to B and B to A permeability of Jaspine B was measured in the presence of TC and rat bile. One mL of HBSS containing 50 μM Jaspine B and 10 mM TC or 20% bile was added to the donor side and 1 mL of preheated fresh HBSS was added to the receiver side. Aliquots (400 μL) of media were withdrawn at 0, 20, 40, 60, and 80 min from the receiver compartment as described above. Aliquots (50 μL) of all samples were stored at −80 °C until analysis.
Aliquots (50 μL) of all samples were added to 250 μL of acetonitrile containing 0.5 ng/mL of berberine. After vortexing for 10 min and centrifugation at 13,200 rpm for 5 min, 2 μL of the supernatant was injected directly into the LC-MS/MS system.
The apparent permeability (Papp) of the drug was calculated by dividing the initial drug transport rate (dQ/dt, pmol/min) by the initial drug concentration in the donor compartment of the insert (Co) multiplied by the surface area of the insert (A, cm^2): (3) Papp=dQ/dt×1/ACo

[3] abbreviates: male, Sprague-Dawley, rat plasma, IV 10 mg/kg.

For the compound `CCCCCCCCCCCCCC[C@@H]1OC[C@H](N)[C@@H]1O` [Jaspine B], the IC50 in the data set on MDA-MB-435 was 2.6 µM. The IC50 in the data set on MCF-7 is 2.31 µM. Besides, the clearance in data set [1] (male, Sprague-Dawley, plasma, rat, IV 10 mg/kg, read-out: CLtotal) was found to be 98.3 ± 7.7 mL/min/kg. The Vd in data set [1] (male, Sprague-Dawley, plasma, rat, IV 10 mg/kg, read-out: Vss) was 21.2 ± 2.6 L/kg. Further, in data set [1] (male, Sprague-Dawley, rat, plasma, rat plasma, distribution phase, read-out: distribution half-life (converted)), the half-life was 1.4 h. Moreover, the half-life in data set [1] (male, Sprague-Dawley, rat, plasma, rat plasma, read-out: T1/2 (terminal half-life) (converted)) is 6.7 ± 1.6 h. Further, in data set [1] (setting [3]), the AUC(0-inf) is 1700 ± 137 ng·h/mL and the MRT came out at 3.6 ± 0.5 h. Moreover, the AUC(0-t) in data set [1] (male, Sprague-Dawley, rat plasma, IV 10 mg/kg, read-out: AUC12h) turned out to be 1290 ± 166 ng·h/mL. Besides, the Xbile in data set [1] (rat bile, IV 10 mg/kg, 0-12 h) is on record as 2.4 ± 0.8 % of dose. For the same compound, the Xurine in data set [1] (rat urine, IV 10 mg/kg, 0-12 h) was 0.4 ± 0.2 % of dose. Further, in data set [1] (rat, IV 10 mg/kg), the CLbile was 3.1 ± 0.6 mL/min/kg; the CLurine was 0.5 ± 0.3 mL/min/kg; the “contribution of CLbile and CLurine to CLtotal” value is listed as “about 4%”. In addition, the “metastatic melanoma cell growth in the lungs” value in data set [2] is listed as “dramatically decreased”. Moreover, the IC50 in the data set on HepG2 is 5.69 µM. Besides, in “in vitro”, the permeability change entry was “increased the permeability”. Further, the Papp at 80 min, 50 μM in “in vitro” (Sprague-Dawley, rat) is 0.11 ×10⁻⁶ cm/s. The “increase of secretory (B to A) permeability” value in “in vitro” (Sprague-Dawley, rat, 80 min, 50 μM) is reported as “approximately 5 fold”.
